These results are taken from patent publication US20250100977A1, “MERCAPTOPYRIMIDINE COMPOUNDS THAT INHIBIT NONHOMOLOGOUS END JOINING AND METHODS THEREOF” (INDIAN INSTITUTE OF SCIENCE, priority 2021, published 2025).

Test [1] deals with T1, Ligase I (Homo sapiens, UniProt P18858).
T1 construct: made in house; host or cells: bacteria
Nature of the test: Inhibition of end joining by purified Ligase I. In kind it is biochemical. The following applies: up to highest concentration of 1000 μM. As for the experimental part:
The compounds of the present invention were analysed for inhibition of end joining with purified Ligase I (FIG. 3A) and Ligase III/XRCC1 (FIG. 3F). The compounds were incubated with either purified Ligase I (FIG. 3B-E) or with Ligase III/XRCC1 (FIGS. 3G-J) in suitable NHEJ buffer at 25° C. for 30 min, followed by addition of radiolabeled DNA, and further incubation for 1 h at 25° C. Products were purified using phenol: chloroform, and run on denaturing PAGE.
Effects of these compounds on NHEJ and Ligase IV mediated joining were evaluated (FIG. 4A-K). The reactions were terminated by EDTA (10 mM), products were purified using phenol/chloroform, precipitated with chilled ethanol and glycogen, and resolved on 8% denaturing PAGE. The gel was dried, exposed, and signal was detected using phosphor Imager FLA9000 (Fuji, Japan), and quantified in MultiGauge software expressed as Photo Stimulated Luminescence Units (PSLU). Inhibition of end joining was reported at 200 μM and 100 μM, respectively for SCR116 and SCR132 (FIGS. 4A, B, C and D), with >50% inhibition at 200 and 100 μM concentrations, respectively. […] FIG. 4K depict the purification profile of Ligase IV and XRCC4. […]

For test [2], the system named is Ligase IV knock out (KO) cell line N114. Nature of the test: Cytotoxicity in Ligase IV knock out cell line N114. The following applies: Table 2, 48 h, read-out: IC50 in cancer cell lines, N114. In kind it is cell-based. As for the experimental part: (§1) Ligase IV specificity of the compounds of the present invention inside the cells were also determined using Ligase IV knock out (KO) cell line N114 compared to the wild type Nalm6 (Table 2, FIGS. 5C, D, E and F). […] Table 1 showing IC50 of SCR7 derivatives in cancer cell lines Nalm6 and HeLa. IC50 was calculated using GraphPad Prism software from the percentage of viable cells following treatment with the compounds at 48 h. Table 2 showing IC50 of SCR116 and SCR132 in a panel of 16 cancer cell lines.

Test [3] has as its target T2, DNA Ligase IV/XRCC4 (Homo sapiens, UniProt P49917).
T2 construct: made in house; host or cells: bacteria
Nature of the test: Inhibition of end joining by purified DNA Ligase IV/XRCC4. In kind it is biochemical. The following applies: for inhibition at 50 µM: Ligase IV; for Inhibition of end joining compared with control: 200 μM, purified Ligase IV/XRCC4; for Concentration from which inhibition of end joining was seen: dose titration with Ligase IV. As for the experimental part: The compounds of Formula I were evaluated for their specific inhibition activity towards enzyme DNA Ligase IV. DNA Ligase IV/XRCC4 was purified from bacteria using Ni-NTA column (FIG. 2A), and used for evaluation of inhibition of end joining of the compounds (01-41) at 200 μM (FIGS. 2B, C and D). The compounds were incubated with purified Ligase IV/XRCC4 in suitable NHEJ buffer at 25° C. for 30 min, followed by addition of radiolabeled DNA, and further incubation for 1 h at 25° C. Products were purified using phenol: chloroform and run on denaturing PAGE.
(§2) Effects of these compounds on NHEJ and Ligase IV mediated joining were evaluated (FIG. 4A-K). The reactions were terminated by EDTA (10 mM), products were purified using phenol/chloroform, precipitated with chilled ethanol and glycogen, and resolved on 8% denaturing PAGE. The gel was dried, exposed, and signal was detected using phosphor Imager FLA9000 (Fuji, Japan), and quantified in MultiGauge software expressed as Photo Stimulated Luminescence Units (PSLU). Inhibition of end joining was reported at 200 μM and 100 μM, respectively for SCR116 and SCR132 (FIGS. 4A, B, C and D), with >50% inhibition at 200 and 100 μM concentrations, respectively. […] FIG. 4K depict the purification profile of Ligase IV and XRCC4. Further FIGS. 4L-M represent inhibition of end joining catalysed by (FIG. 4L) purified Ligase III/XRCCI in presence of SCR116 and SCR132 (50, 100, 200, 500, 1000 μM) and (FIG. 4M) by purified Ligase I in presence of increasing concentrations of SCR116 and SCR132 (10, 50, 100, 200, 500, 1000 μM).

In test [4] the test system is LN229. The experiment in a line: Cytotoxicity in LN229. The following applies: Homo sapiens, LN-229; Table 2; read-out: IC50 in cancer cell lines, LN229. In kind it is cell-based. As for the experimental part:
as §1

Test [5] deals with Dalton's Lymphoma (DLA) tumor. The experiment in a line: Mice allograft model, Dalton's Lymphoma (DLA). In kind it is in vivo. The following applies: for Tumor burden: oral, 15 and 25 mg/kg, pilot. Here is the method:
(§3) The effect of oral dose of the compounds of the present disclosure on mice Erlich Ascites Carcinoma (EAC) and Dalton's Lymphoma (DLA) tumors were also evaluated (FIGS. 10A-F).

The subject of test [6] is rat testicular extracts. Nature of the test: Inhibition of end joining of rat testicular extracts (NHEJ). The format is biochemical. The following applies: for Inhibition of end joining (in words): 200 μM; for Inhibition of end joining (no joined product observed): 500 μM, rat testicular extract; for End joining after Ligase IV added back to inhibited testicular extract: complementation with purified Ligase IV/XRCC4. As for the experimental part: The compounds of the present invention were tested for their effects on inhibition of DNA end joining reactions using rat tissue extracts and purified DNA Ligase IV/XRCC4. Rat testicular extracts were prepared from testes of 4-6 week old male Wistar rats, Rattus norvegicus using ammonium sulphate precipitation method. To determine end joining of cell-free extracts, radiolabeled double-stranded (ds) oligomeric DNA substrate was incubated with rat testicular extract at 25° C. in suitable NHEJ buffer. Extracts were incubated for 30 min with the compounds of Formula I (01-41, 500 μM) as prepared in Example 1, and then radioactive DNA substrate was added to the reaction mixture and incubated for 1 h at 25° C. Reactions were stopped using EDTA, and products were purified using phenol: chloroform extraction and loaded on denaturing polyacrylamide gel. […] Joining efficiency was calculated using the intensity of product bands (150 bp or higher) in individual lanes in Multi Gauge software as compared to control (lanes 2,3). Lane 1 denotes radioactive substrate in absence of protein or inhibitor, while M denotes radiolabeled 50 bp DNA ladder.
as §2

In test [7] the test system is Erlich Ascites Carcinoma (EAC) tumor. The experiment in a line: Mice allograft model, Erlich Ascites Carcinoma (EAC). The format is in vivo. The following applies: for Tumor progression: intraperitoneal; for Tumor progression / Tumor load: alternate days; for Tumor load: oral, 8 doses, pilot. Here is the method:
The compounds of the present disclosure were evaluated for the anti-cancer efficacy starting from lower concentrations using Mice allograft model. Mice allograft model was developed by injecting Erlich Ascites Carcinoma (EAC) cell lines in the thigh region of the mice followed by treatment with the compounds via intraperitoneal and oral routes on alternate days (FIG. 9C).
as §3

For test [8], the system named is HCT116. Nature of the test: Cytotoxicity in HCT116. The format is cell-based. The following applies: Homo sapiens, HCT-116; Table 2; read-out: IC50 in cancer cell lines, HCT116. As for the experimental part:
as §1

The test system of test [9] is Supt1. Nature of the test: Cytotoxicity in Supt1. In kind it is cell-based. The following applies: Homo sapiens, SUP-T1; Table 2; read-out: IC50 in cancer cell lines, Supt1. Here is the method: as §1
Test [10] concerns Molt4. The experiment in a line: Cytotoxicity in Molt4. In kind it is cell-based, human. The following applies: Homo sapiens, MOLT-4; Table 2; read-out: IC50 in cancer cell lines, Molt4. Here is the method:
as §1

The test system of test [11] is Raji. The experiment in a line: Cytotoxicity in Raji. The format is cell-based. The following applies: Homo sapiens, Raji; Table 2; read-out: IC50 in cancer cell lines, Raji. Here is the method:
as §1

T2 sequence (P49917 whole entry): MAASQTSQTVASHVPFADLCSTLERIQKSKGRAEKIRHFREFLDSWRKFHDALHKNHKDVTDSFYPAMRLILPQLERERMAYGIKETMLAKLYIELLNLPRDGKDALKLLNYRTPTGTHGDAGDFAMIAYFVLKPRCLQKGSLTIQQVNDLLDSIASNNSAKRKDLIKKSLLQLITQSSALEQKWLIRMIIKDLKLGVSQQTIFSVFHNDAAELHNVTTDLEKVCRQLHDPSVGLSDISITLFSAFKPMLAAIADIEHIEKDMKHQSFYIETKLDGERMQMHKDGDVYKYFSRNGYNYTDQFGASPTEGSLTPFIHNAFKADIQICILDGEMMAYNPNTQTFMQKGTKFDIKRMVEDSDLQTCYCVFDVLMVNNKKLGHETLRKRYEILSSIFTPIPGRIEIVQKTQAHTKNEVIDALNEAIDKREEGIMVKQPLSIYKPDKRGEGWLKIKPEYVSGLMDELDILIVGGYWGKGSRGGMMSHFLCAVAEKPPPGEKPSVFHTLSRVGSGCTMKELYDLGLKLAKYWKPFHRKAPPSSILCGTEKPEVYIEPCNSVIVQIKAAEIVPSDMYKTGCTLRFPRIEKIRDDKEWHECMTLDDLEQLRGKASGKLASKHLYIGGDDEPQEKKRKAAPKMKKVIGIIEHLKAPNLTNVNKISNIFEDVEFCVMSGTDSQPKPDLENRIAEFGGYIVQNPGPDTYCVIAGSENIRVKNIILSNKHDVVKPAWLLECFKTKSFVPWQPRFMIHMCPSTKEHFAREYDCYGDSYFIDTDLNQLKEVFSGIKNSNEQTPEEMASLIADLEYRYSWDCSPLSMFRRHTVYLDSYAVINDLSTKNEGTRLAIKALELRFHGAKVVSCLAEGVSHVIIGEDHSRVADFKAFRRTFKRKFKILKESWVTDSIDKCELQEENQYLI
T2 sequence (Q13426 whole entry partner): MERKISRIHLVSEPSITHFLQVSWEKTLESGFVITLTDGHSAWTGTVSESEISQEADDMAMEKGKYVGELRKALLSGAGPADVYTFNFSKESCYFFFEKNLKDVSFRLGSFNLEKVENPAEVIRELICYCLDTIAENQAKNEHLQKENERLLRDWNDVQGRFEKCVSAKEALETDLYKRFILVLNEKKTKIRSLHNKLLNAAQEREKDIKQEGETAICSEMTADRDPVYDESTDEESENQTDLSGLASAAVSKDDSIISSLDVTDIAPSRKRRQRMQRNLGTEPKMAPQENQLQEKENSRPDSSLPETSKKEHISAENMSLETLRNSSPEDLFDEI
T1 sequence (P18858 whole entry): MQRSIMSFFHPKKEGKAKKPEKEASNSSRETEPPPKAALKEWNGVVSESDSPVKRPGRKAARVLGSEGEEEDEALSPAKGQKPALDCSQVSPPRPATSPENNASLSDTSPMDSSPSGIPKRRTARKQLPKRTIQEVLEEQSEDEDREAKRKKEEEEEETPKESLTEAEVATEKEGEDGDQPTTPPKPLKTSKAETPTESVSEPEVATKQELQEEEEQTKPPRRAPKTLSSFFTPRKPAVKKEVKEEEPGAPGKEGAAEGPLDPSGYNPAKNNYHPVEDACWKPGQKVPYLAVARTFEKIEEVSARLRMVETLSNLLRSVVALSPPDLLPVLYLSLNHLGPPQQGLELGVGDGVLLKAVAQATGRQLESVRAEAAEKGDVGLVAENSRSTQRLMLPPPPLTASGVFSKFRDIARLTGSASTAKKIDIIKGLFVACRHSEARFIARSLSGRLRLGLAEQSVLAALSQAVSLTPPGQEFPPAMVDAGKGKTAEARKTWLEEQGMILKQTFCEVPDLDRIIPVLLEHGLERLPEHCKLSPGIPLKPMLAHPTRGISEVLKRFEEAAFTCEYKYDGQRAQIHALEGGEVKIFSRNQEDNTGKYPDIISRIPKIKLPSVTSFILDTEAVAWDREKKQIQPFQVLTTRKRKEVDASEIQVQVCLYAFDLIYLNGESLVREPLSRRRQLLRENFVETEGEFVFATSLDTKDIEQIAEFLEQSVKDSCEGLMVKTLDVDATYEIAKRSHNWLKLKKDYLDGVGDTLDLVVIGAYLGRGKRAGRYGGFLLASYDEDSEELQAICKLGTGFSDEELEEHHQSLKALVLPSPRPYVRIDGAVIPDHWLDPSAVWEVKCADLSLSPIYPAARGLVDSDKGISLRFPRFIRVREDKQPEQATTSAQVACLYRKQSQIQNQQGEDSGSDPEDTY

Regarding `Nc1nc(S)nc(O)c1/N=C/c1ccc([N+](=O)[O-])s1` [Compound 16, (E)-6-amino-2-mercapto-5-(((5-nitrothiophen-2-yl)methylene)amino)pyrimidin-4-ol], the “Inhibition of end joining with Ligase I” value in test [1] is given as “no inhibition”. In addition, the IC50 in [2] is 14.1 µM; in test [4] it was 5.6 µM; in test [8] it was 5.2 µM; in [9], 1.32 µM; in test [10], 4.89 µM; in test [11], 4.37 µM. Also, the inhibition at 50 µM in test [3] is over 50%. In addition, in test [3], the “Inhibition of end joining compared with control” value is on record as “significant inhibition of end joining”. In test [3], the “Concentration from which inhibition of end joining was seen” value worked out at 5 µM. The Tumor burden entry in test [5] is “reduced tumor burden”. The Tumor size result in test [5] (selected oral dose 10 mg/kg) and in test [7] (selected oral dose 10 mg/kg) was “significant reduction in tumor size” throughout. In addition, the “Inhibition of end joining (in words)” value in test [6] is “complete inhibition of end joining”. The “Inhibition of end joining (no joined product observed)” value in test [6] was “showed inhibition of end joining”. In addition, the “End joining after Ligase IV added back to inhibited testicular extract” value in [6] is given as “joining efficiency was restored”. For the same compound, the Tumor progression result in test [7] (10 mg/kg) is “inhibition of tumor progression”. For the same compound, the Tumor load result in [7] (10 and 30 mg/kg) is listed as “reduced tumor load”.
For `Nc1nc(S)nc(O)c1/N=C/c1sc(Cl)nc1Cl` [Compound 32, (E)-6-amino-5-(((2,4-dichlorothiazol-5-yl)methylene)amino)-2-mercaptopyrimidin-4-ol], the “Inhibition of end joining with Ligase I” value in [1] is reported as “no inhibition”. Moreover, the IC50 was determined as 10.1 µM in [2]; 7.7 µM in test [4]; 2 µM in test [8]; 0.734 µM in test [9]; 1.88 µM in test [10]; 1.59 µM in test [11]. In addition, the inhibition at 50 µM in test [3] is over 50%. For the same compound, in test [3], the “Inhibition of end joining compared with control” value is reported as “significant inhibition of end joining”. Moreover, in [3], the “Concentration from which inhibition of end joining was seen” value came out at 10 µM. Moreover, the Tumor burden result in test [5] is reported as “reduced tumor burden”. The Tumor size result in test [5] (selected oral dose 15 mg/kg) and in [7] (selected oral dose 15 mg/kg) was “significant reduction in tumor size” each time. The “Inhibition of end joining (in words)” value in [6] is “complete inhibition of end joining”. Moreover, the “Inhibition of end joining (no joined product observed)” value in test [6] was “showed inhibition of end joining”. Besides, the “End joining after Ligase IV added back to inhibited testicular extract” value in [6] is “joining efficiency was restored”. The Tumor progression entry in test [7] (5 mg/kg) was “inhibition of tumor progression”. Besides, the Tumor load entry in test [7] (5 and 15 mg/kg) is “reduced tumor load”.

The term IC50 denotes the concentration that inhibits the measured activity by half. Broadly, the inhibition is the drop in the measured response relative to a control, in per cent.
